# Earlier results in patent US20070232656A1, “Pharmaceutical Composition And Method For Treating Neurodegenerative Disorders” (Myriad Genetics, Incorporated, priority 2004, published 2007).
# Like-named read-outs stand apart in the source and are kept apart here.
# Key:
# Aβ42 [1] = settings: transgenic mouse model
# Aβ42 [2] = settings: CHO cells
# [3] = 50 mg and 100 mg doses, human subjects
# [4] = for efficacy for treating AD: clinical trials in AD patients (rofecoxib at 25 mg daily)
# [5] = in vivo Alzheimer's disease excitotoxic model system
# [6] = patients having mild cognitive impairment
smiles,measurement,setting,value
C[C@@H](C(=O)O)c1ccc(-c2ccccc2)c(F)c1 [(R)-2-(2-fluoro-4-biphenylyl)propionic acid],inhibition of COX activity,COX,negligibly inhibits COX activity
same,lowering of Aβ42,Aβ42 [1],lower Aβ42
same,lowering of Aβ42,Aβ42 [2],lower Aβ42
same,analgesic effect,[3],produced an analgesic effect
COc1ccc2cc([C@H](C)C(=O)O)ccc2c1 [Naproxen],efficacy for treating AD,[4],failed to show efficacy
CC12CC3CC(C)(C1)CC(N)(C3)C2 [memantine],efficacy in treating mild-to-moderate AD,[4]; mild-to-moderate AD,showed efficacy
CS(=O)(=O)c1ccc(C2=C(c3ccccc3)C(=O)OC2)cc1 [rofecoxib],efficacy for treating AD,[4],failed to show efficacy
same,neuroprotection,[5],provides neuroprotection
same,prevention of the development of Alzheimer's disease,[6],failed to prevent the development of Alzheimer's disease
same,patients who developed AD,[6]; 4.5% for placebo,6.4%
